According to patent US11548883B2, “Compounds as autotaxin inhibitors and pharmaceutical compositions comprising the same” (LegoChem Biosciences, Inc., priority 2017, dated 2023):

Assays:
Assay type in all cases: biochemical
human ENPP2 = human ENPP2 (Homo sapiens (Human), UniProt Q13822); test: Inhibitory activity on human ENPP2 (FS-3 assay); conditions: human ENPP2, FS-3 substrate, Table 2
Method: Two-fold dilution of each test compound solution (10 μM, 100% dimethyl sulfoxide) is carried out on 96-well V bottom plate (Costar 3363). After ten-fold dilution of each the test compound solution (100% dimethyl sulfoxide) with deionized distilled water, 10 μL of the diluted each compound solution (10% dimethyl sulfoxide) was aliquoted to a black flat bottom 96-well plate (Costar 3915).

[1] = system: LPA production in blood serum; test: Inhibitory activity on LPA production in mouse blood serum; conditions: mouse blood serum (m), 18:1 LPC added
[2] = system: LPA production in blood serum; test: Inhibitory activity on LPA production in human blood serum; conditions: human blood serum (h), 18:1 LPC added

Row | SMILES | IC50 (human ENPP2) [nM] | IC50 [1] [nM] | IC50 [2] [nM]
1 | O=C(Cn1cc(-c2cnc(NC3Cc4ccccc4C3)nc2)cn1)N1CCc2[nH]nnc2C1 [Compound 56, 2-(4-{2-[(2,3-dihydro-1H-inden-2-yl)amino]pyrimidin-5-yl}-1H-pyrazol-1-yl)-1-{1H,4H,5H,6H,7H-[1,2,3]triazolo[4,5-c]pyridin-5-yl}ethan-1-one] | 2.2 | 13 | 
2 | O=C1CN(Cc2nn(CC(=O)N3CCc4[nH]nnc4C3)cc2-c2cnc(NC3Cc4ccccc4C3)nc2)CCN1 [Compound 82, 4-[(4-{2-[(2,3-dihydro-1H-inden-2-yl)amino]pyrimidin-5-yl}-1-(2-oxo-2-{1H,4H,5H,6H,7H-[1,2,3]triazolo[4,5-c]pyridin-5-yl}ethyl)-1H-pyrazol-3-yl)methyl]piperazin-2-one] | < 1.56 | 8 | 
3 | O=C(Cn1cnc(-c2cnc(NC3Cc4ccccc4C3)nc2)c1)N1CCc2[nH]nnc2C1 [Compound 60, 2-(4-{2-[(2,3-dihydro-1H-inden-2-yl)amino]pyrimidin-5-yl}-1H-imidazol-1-yl)-1-{1H,4H,5H,6H,7H-[1,2,3]triazolo[4,5-c]pyridin-5-yl}ethan-1-one] | 1.8 | 11 | 
4 | O=C(Cn1cc(-c2cnc(NC3Cc4ccccc4C3)nc2)c(OCc2ccccc2)n1)N1CCc2[nH]nnc2C1 [Compound 63, 2-[3-(benzyloxy)-4-{2-[(2,3-dihydro-1H-inden-2-yl)amino]pyrimidin-5-yl}-1H-pyrazol-1-yl]-1-{1H,4H,5H,6H,7H-[1,2,3]triazolo[4,5-c]pyridin-5-yl}ethan-1-one] |  | 12 | 10
5 | CN(C)c1nn(CC(=O)N2CCc3[nH]nnc3C2)cc1-c1cnc(NC2Cc3ccccc3C2)nc1 [Compound 74, 2-(4-{2-[(2,3-dihydro-1H-inden-2-yl)amino]pyrimidin-5-yl}-3-(dimethylamino)-1H-pyrazol-1-yl)-1-{1H,4H,5H,6H,7H-[1,2,3]triazolo[4,5-c]pyridin-5-yl}ethan-1-one] | 1.7 | 15 | 
6 | CCc1nn(CC(=O)N2CCc3[nH]nnc3C2)cc1-c1cnc(NC2Cc3ccccc3C2)nc1 [Compound 79, 2-(4-{2-[(2,3-dihydro-1H-inden-2-yl)amino]pyrimidin-5-yl}-3-ethyl-1H-pyrazol-1-yl)-1-{1H,4H,5H,6H,7H-[1,2,3]triazolo[4,5-c]pyridin-5-yl}ethan-1-one] | 1.6 |  | 5
7 | O=C(Cn1cc(-c2cnc(NC3Cc4ccccc4C3)nc2)c(CN2CCCCC2)n1)N1CCc2[nH]nnc2C1 [Compound 81, 2-(4-{2-[(2,3-dihydro-1H-inden-2-yl)amino]pyrimidin-5-yl}-3-(piperidin-1-ylmethyl)-1H-pyrazol-1-yl)-1-{1H,4H,5H,6H,7H-[1,2,3]triazolo[4,5-c]pyridin-5-yl}ethan-1-one] | < 1.56 | 5 | 
8 | O=C(Cn1cc(-c2cnc(NC3Cc4ccccc4C3)nc2)c(CN2CCc3ccccc3C2)n1)N1CCc2[nH]nnc2C1 [Compound 84, 2-(4-{2-[(2,3-dihydro-1H-inden-2-yl)amino]pyrimidin-5-yl}-3-(1,2,3,4-tetrahydroisoquinolin-2-ylmethyl)-1H-pyrazol-1-yl)-1-{1H,4H,5H,6H,7H-[1,2,3]triazolo[4,5-c]pyridin-5-yl}ethan-1-one] | 2.8 | 8 | 
9 | O=C(Cn1cc(-c2cnc(NC3Cc4ccccc4C3)nc2)c(OCCN2CCOCC2)n1)N1CCc2[nH]nnc2C1 [Compound 66, 2-(4-{2-[(2,3-dihydro-1H-inden-2-yl)amino]pyrimidin-5-yl}-3-[2-(morpholin-4-yl)ethoxy]-1H-pyrazol-1-yl)-1-{1H,4H,5H,6H,7H-[1,2,3]triazolo[4,5-c]pyridin-5-yl}ethan-1-one] | 1.9 | 12 | 
10 | CCN1CCC(Oc2nn(CC(=O)N3CCc4[nH]nnc4C3)cc2-c2cnc(NC3Cc4ccccc4C3)nc2)CC1 [Compound 70, 2-(4-{2-[(2,3-dihydro-1H-inden-2-yl)amino]pyrimidin-5-yl}-3-[(1-ethylpiperidin-4-yl)oxy]-1H-pyrazol-1-yl)-1-{1H,4H,5H,6H,7H-[1,2,3]triazolo[4,5-c]pyridin-5-yl}ethan-1-one] | 2.3 | 11 | 
11 | O=C(O)COc1nn(CC(=O)N2CCc3[nH]nnc3C2)cc1-c1cnc(NC2Cc3ccccc3C2)nc1 [Compound 73, 2-[(4-{2-[(2,3-dihydro-1H-inden-2-yl)amino]pyrimidin-5-yl}-1-(2-oxo-2-{1H,4H,5H,6H,7H-[1,2,3]triazolo[4,5-c]pyridin-5-yl}ethyl)-1H-pyrazol-3-yl)oxy]acetic Acid] | 3.7 | 69 | 
12 | O=C(Cn1cc(-c2cnc(NC3Cc4ccccc4C3)nc2)c(O)n1)N1CCc2[nH]nnc2C1 [Compound 65, 2-(4-{2-[(2,3-dihydro-1H-inden-2-yl)amino]pyrimidin-5-yl}-3-hydroxy-1H-pyrazol-1-yl)-1-{1H,4H,5H,6H,7H-[1,2,3]triazolo[4,5-c]pyridin-5-yl}ethan-1-one] | < 1.56 | 30 | 
13 | O=C(O)c1ccc(COc2nn(CC(=O)N3CCc4[nH]nnc4C3)cc2-c2cnc(NC3Cc4ccccc4C3)nc2)cc1 [Compound 72, 4-{[(4-{2-[(2,3-dihydro-1H-inden-2-yl)amino]pyrimidin-5-yl}-1-(2-oxo-2-{1H,4H,5H,6H,7H-[1,2,3]triazolo[4,5-c]pyridin-5-yl}ethyl)-1H-pyrazol-3-yl)oxy]methyl}benzoic Acid] | 3.4 | 42 | 
